Data on 7 molecules can be found in patent US20250326753A1, “DUAL CXCR4-BTK INHIBITORS” (X4 Pharmaceuticals, Inc., priority 2022, published 2025).

Read-outs that look alike come from different tables or passages of the source. Some results are limits rather than exact numbers.

Assay [1] deals with T1, TXK (Homo sapiens, UniProt P42681).
T1 construct: purchased Reaction Biology Europe GmbH
T1 sequence (P42681 1-527): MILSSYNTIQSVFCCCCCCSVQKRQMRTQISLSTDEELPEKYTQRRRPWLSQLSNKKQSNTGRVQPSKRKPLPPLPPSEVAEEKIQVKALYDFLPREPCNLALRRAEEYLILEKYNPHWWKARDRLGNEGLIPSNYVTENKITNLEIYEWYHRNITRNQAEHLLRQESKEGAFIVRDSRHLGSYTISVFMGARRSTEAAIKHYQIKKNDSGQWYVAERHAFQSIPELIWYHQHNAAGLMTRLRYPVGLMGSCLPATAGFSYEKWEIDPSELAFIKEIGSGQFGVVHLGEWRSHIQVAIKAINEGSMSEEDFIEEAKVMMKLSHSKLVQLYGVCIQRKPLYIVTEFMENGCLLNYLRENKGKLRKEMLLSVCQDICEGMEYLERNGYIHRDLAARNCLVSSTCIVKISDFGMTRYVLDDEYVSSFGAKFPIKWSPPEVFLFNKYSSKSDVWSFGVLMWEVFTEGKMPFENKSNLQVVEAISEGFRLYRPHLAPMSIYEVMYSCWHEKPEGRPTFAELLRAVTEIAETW
As to the kind of experiment: PanQinase kinase panel: TXK. The assay is classed as biochemical. The note with it: read-out: INHIBITORY EFFECT @ 1 uM: TXK. As to the method: (§1) Screening procedures were performed in accordance with the company's on-line protocol [accessed on-line Mar.
(§2) For each kinase, the median value of the cpm of three wells was defined as “low control” (n=3). This value reflects unspecific binding of radioactivity to the plate in the absence of a protein kinase but in the presence of the substrate. Additionally, for each kinase the median value of the cpm of three other wells was taken as the “high control,” i.e. full activity in the absence of any inhibitor (n=3). The difference between high and low control of each enzyme was taken as 100% activity.
(§3) As part of the data evaluation the low control of each kinase was subtracted from the high control value as well as from their corresponding “compound values”. The residual activity (in %) for each compound well was calculated by using the following formula: Res. Activity (%)=100×[(signal of compound−low control)/(high control−low control)].

For assay [2], the target named is T2, DDR2 (Homo sapiens, UniProt Q16832).
T2 construct: purchased Reaction Biology Europe GmbH
T2 sequence (Q16832 22-855): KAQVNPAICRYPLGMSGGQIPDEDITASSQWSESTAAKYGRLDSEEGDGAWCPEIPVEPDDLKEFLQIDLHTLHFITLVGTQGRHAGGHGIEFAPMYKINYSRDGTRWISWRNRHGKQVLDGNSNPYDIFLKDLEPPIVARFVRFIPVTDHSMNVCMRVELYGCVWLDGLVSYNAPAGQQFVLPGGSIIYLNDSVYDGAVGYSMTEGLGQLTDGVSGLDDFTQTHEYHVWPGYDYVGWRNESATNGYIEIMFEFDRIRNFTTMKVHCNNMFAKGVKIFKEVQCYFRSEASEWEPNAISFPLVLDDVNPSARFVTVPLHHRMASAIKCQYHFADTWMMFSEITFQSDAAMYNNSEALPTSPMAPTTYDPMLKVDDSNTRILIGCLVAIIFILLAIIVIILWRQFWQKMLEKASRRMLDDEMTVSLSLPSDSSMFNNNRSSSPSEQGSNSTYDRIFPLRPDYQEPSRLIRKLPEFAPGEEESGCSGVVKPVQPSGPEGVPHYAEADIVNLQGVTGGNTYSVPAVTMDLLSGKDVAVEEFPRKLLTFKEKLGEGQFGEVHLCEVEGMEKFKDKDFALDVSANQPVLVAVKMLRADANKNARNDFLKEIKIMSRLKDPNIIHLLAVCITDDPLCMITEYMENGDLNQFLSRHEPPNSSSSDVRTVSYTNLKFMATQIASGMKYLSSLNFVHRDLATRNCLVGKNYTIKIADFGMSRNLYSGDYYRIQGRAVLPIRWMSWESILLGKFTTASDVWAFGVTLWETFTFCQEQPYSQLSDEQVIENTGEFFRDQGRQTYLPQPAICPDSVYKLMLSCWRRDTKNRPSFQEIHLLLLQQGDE
As to the kind of experiment: PanQinase kinase panel: DDR2. The format is biochemical. As to the method: as §1, §2, §3

Assay [3] has as its target T3, TIE2 (Homo sapiens, UniProt Q02763).
T3 construct: purchased Reaction Biology Europe GmbH
As to the kind of experiment: PanQinase kinase panel: TIE2. The note with it: read-out: INHIBITORY EFFECT @ 1 uM: TIE2. The assay is classed as biochemical. As to the method: as §1, §2, §3

The test system of assay [4] is U-87 MG. The experiment in a line: Glioblastoma multiforme cell proliferation assay (CellTiter Glo), U-87 MG. The assay is classed as cell-based. The note with it: Homo sapiens; for Emax: read-out: GBM-U87MG Cell Proliferation Emax %. As to the method:
Inhibition of glioblastoma multiforme cell proliferation by compounds of the present invention was evaluated in U-87 MG (ATCC; Cat. No. HTB-14; Lot. No. 5018014) and T98G (ATCC; Cat. No. CRL-1690; Lot. No. 58267513) cell lines. These are adherent cell lines isolated from glioblastoma multiforme/malignant glioma, which express both CXCR4 and BTK (see Zhou et al. 2002 and Yue et al. 2017).
Cell viability was analyzed with the CellTiter Glo Cell assay kit ([…], Cat. No. G7573, Lot. No. 0000474103), according to the manufacturer's instruction.
U-87 MG and T98G cells were seeded onto 384-well opaque-walled clear bottom plates (Corning, Cat. No. 3765, Lot. No. 34319047) in EMEM (Invitrogen, Cat. No. 11095-080; Lot. No. 2276656) supplemented with 10% FBS (Invitrogen, Cat. No. 10099-141C, Lot. No. 2145169CP), at a seeding density of 1000 or 1200 cells per well, respectively, and then incubated in 5% CO2 at 37° C. overnight.
Compounds were prepared as stock solutions of 30 mM in DMSO (Sigma, Cat. No. 276855-1L. Lot. No. SHBL5610). Compounds were added to the cells, with 10 dose points in duplicates, in 3-fold dilution from a top concentration of 30 μM (final DMSO concentration […]), and incubated in 5% CO2 at 37° C. for 96 hr.
The 384-well plates were equilibrated at room temperature for approximately 30 min. 25 μl of CellTiter-Glo® Reagent was added to each well and mixed for 10 min on an orbital shaker to induce cell lysis. The 384-well plates were incubated at room temperature for 10 min to stabilize luminescent signal. Luminescence was detected on a PerkinElmer EnVision Multimode Plate Reader (measurement time 0.1s) as relative luminescence units (RLU).
On the technique in general: Cellular ATP, detected with luciferase, serves as a proxy for viable cell number.

Setting [5] is: at 1 μM, read-out: inhibition of DDR2.
[6] abbreviates: read-out: INHIBITORY EFFECT @ 1 uM: DDR2.
[7] abbreviates: Table 6A, cell viability, 96 hr, read-out: U-87 MG IC50.

T3 sequence (Q02763 23-1124): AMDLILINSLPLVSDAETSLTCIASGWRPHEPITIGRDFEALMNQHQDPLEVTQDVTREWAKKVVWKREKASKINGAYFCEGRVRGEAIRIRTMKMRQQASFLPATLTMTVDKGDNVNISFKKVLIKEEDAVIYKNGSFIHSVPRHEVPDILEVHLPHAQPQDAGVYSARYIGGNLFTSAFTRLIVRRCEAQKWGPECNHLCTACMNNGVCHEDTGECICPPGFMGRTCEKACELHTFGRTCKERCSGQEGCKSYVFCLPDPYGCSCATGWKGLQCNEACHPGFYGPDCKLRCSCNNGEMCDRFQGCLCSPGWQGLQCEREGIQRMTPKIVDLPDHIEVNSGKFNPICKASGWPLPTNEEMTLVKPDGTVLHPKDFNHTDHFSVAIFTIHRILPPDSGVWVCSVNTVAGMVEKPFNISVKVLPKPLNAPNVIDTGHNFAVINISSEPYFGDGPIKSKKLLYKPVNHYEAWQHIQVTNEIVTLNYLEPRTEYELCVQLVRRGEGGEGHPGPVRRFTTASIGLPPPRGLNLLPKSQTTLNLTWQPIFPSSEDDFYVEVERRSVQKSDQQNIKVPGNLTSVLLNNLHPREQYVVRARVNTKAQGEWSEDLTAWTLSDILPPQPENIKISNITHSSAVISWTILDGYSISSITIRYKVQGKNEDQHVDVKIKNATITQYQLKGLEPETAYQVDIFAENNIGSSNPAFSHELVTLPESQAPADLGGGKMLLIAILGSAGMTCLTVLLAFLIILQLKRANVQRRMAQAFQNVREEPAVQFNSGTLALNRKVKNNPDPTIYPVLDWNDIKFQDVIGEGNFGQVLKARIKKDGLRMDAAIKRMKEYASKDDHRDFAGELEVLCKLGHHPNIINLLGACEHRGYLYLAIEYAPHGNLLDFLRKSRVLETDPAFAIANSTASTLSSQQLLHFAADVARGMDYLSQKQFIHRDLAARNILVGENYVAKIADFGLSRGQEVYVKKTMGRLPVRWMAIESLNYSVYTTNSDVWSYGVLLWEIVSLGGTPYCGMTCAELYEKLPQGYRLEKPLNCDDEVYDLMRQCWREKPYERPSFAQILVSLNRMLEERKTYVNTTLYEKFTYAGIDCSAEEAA

Turning to `O=C(c1ccc(Oc2ccccc2)cc1Cl)c1c[nH]c2ncnc(N[C@@H]3CC[C@@H](CO)OC3)c12` [ARQ-531, (2-chloro-4-phenoxyphenyl) (4-(((3R,6S)-6-(hydroxymethyl)tetrahydro-2H-pyran-3-yl)amino)-7H-pyrrolo[2,3-d]pyrimidin-5-yl) methanone], the inhibition at 1 µM in assay [1] is 90 to 100%; in assay [2] (setting [5]) it was at least 50%; in assay [2] (setting [6]) it was 50 to 69%; in assay [3] it was below 50%.
As to `Cc1cccnc1[C@H]1CCC[C@@H](c2ncccc2C)N1CCN1CCN(C(=O)c2ccc(-c3cc4c(-c5cccc(NC(=O)c6ccccc6)c5C)ncnc4[nH]3)cc2)CC1` [Compound I-10, N-(3-(6-(4-(4-(2-((2R,6S)-2,6-bis(3-methylpyridin-2-yl)piperidin-1-yl)ethyl)piperazine-1-carbonyl)phenyl)-7H-pyrrolo[2,3-d]pyrimidin-4-yl)-2-methylphenyl)benzamide], the inhibition at 1 µM in assay [1] was below 50%; in assay [2] (setting [5]) it was 50 to 89%; in assay [2] (setting [6]) it was 70 to 89%; in assay [3], below 50%. Besides, the Emax in assay [4] (Table 6B) was 101%. In addition, the IC50 in assay [4] (read-out: GBM-U87MG Cell Proliferation IC50 uM) is 0.76 µM.
As to `Cc1cc(-c2ccnc(Nc3cnn(CCN4[C@@H](c5ncccc5C)CCC[C@H]4c4ncccc4C)c3)n2)ccc1CNC(=O)N1CC(OC(C)C)C1` [Compound I-11], the Emax in assay [4] (Table 6B) came to 96%. Further, in assay [4] (Table 6B, read-out: GBM-U87MG Cell Proliferation IC50), the IC50 came out at 0.66 µM.
As for `Cc1cccnc1[C@H]1CCC[C@@H](c2ncccc2C)N1CCCCNC(=O)[C@@H]1CC[C@@H](Nc2ncnc3[nH]cc(C(=O)c4ccc(Oc5ccccc5)cc4Cl)c23)CO1` [Compound I-16], the IC50 in assay [4] (setting [7]) amounted to 1.3 µM.
As to `Cc1cccnc1[C@H]1CCC[C@@H](c2ncccc2C)N1CCCCNC(=O)OC[C@@H]1CC[C@@H](Nc2ncnc3[nH]cc(C(=O)c4ccc(Oc5ccccc5)cc4Cl)c23)CO1` [Compound I-18], the IC50 in assay [4] (setting [7]) turned out to be 1.2 µM.
Turning to `COc1ccc(F)cc1C(=O)NCc1ccc(-c2nn([C@@H](C)C(F)(F)F)c(N)c2C(N)=O)cc1` [LOXO-305, pirtobrutinib], the inhibition at 1 µM in assay [1] was 50 to 69%; in assay [2] (setting [6]), below 50%; in assay [3] it was below 50%.
Turning to `C=CC(=O)N1CCC([C@@H]2CCNc3c(C(N)=O)c(-c4ccc(Oc5ccccc5)cc4)nn32)CC1` [Zanubrutinib, (7S)-2-(4-phenoxyphenyl)-7-(1-prop-2-enoylpiperidin-4-yl)-4,5,6,7-tetrahydropyrazolo[1,5-a]pyrimidine-3-carboxamide], the inhibition at 1 µM in assay [1] is 90 to 100%; in assay [2] (setting [6]) it was below 50%; in assay [3], below 50%.
